Experimental data published in US20050250752A1, “Cembranoids with chemopreventive activity” (priority 2002, published 2005).

How the values were obtained:
[1] = test system: Epstein-Barr virus early antigen (EBV-EA) of Raji cells induced by tumor promoter (TPA); assay: Inhibition of EBV-EA activation induced by TPA in Raji cells; assay type: cell-based; conditions: TPA 32 pmol, Raji cells, 48 h
Experimental: (§1) The inhibition of EBV-EA activation was assayed using Raji cells (virus non-producer type). The indicator cells (Raji, 1×10^6/ml) were incubated at 37° C. for 48 h in 1 ml of medium containing n-butyric acid (4 mmol), TPA(12-O-tetradecanoylphorbol 13-acetate)(32 pmol=20 ng in 2 μl DMSO) as inducer and various amounts of test compounds in 5 μl DMSO. Smears were made from the cell suspension, and the activated cells, which were stained by EBV-EA positive serum from nasopharygeal carcinoma patients were detected by an indirect immunofluorescence technique. For each compound, assays were performed in triplicate. The average EBV-EA induction of the test compounds was expressed as a relative ratio to the control experiment (100%), which was carried out only with n-butyric acid plus TPA. The viability of treated Raji cells was assayed by the Trypan Blue staining method.

Raji cells = assay: Viability of treated Raji cells (Trypan Blue staining); assay type: cell-based
Experimental: as §1

[2] = test system: papillomas (mouse skin carcinogenesis induced by DMBA/TPA); assay: Two-stage mouse skin carcinogenesis model induced by DMBA/TPA; assay type: in vivo, mouse (female ICR); conditions: topical 85 nm 1 hour before TPA, ICR mice
Experimental: In the two-stage mouse skin carcinogenesis model induced by DMBA/TPA, the animals (specific pathogen-free female ICR, 6 weeks old) were divided into 5 groups, 15 mice each. The back of each mouse was shaved with surgical clippers, and the mice were topically treated with DMBA (100 μg, 390 nmol) in acetone (0.1 ml) as an initiation treatment. For the positive control group, 1 week after initiation with DMBA, mice were promoted by the application with TPA (1 μg, 1.7 nmol) in acetone (0.1 ml) twice a week. The other four groups received a topical application of each of the sarcophine semi-synthetic derivatives (85 nm) 1 hour before application of the tumor promoter. The incidence of papillomas was observed weekly for 20 weeks. The percentage of mice bearing papillomas and the average number of papillomas per mouse were recorded.

[3] = x 1000 mol ratio/TPA (32 nmol/mL)

With `CC1=CC=C([C@@](C)(O)CO)C[C@H](O)C(C)=CCCC2(C)OC2CC1` (stereo partly drawn) [Compound 12, 7,8-Epoxy-1,3,11-cembratriene-13S(β),15R(α),16-triol] as the molecule, how does the “EBV-EA induction, percentage relative to the positive control value (100%)” value ([1]; x 10 mol ratio/TPA) read?
The value was 93.8%.

What about the “EBV-EA induction, percentage relative to the positive control value (100%)” value ([1]; x 100 mol ratio/TPA) of the same molecule?
The value was 74.6%.

And the “EBV-EA induction, percentage relative to the positive control value (100%)” value ([1]; x 500 mol ratio/TPA)?
The value was 55.8%.

And the “EBV-EA induction, percentage relative to the positive control value (100%)” value [1, 3]?
Its value is 5.9%.

And the “viability percentage of Raji cells (indicator cells)” value (shortened to “viability percentage of Raji cells”) (Raji cells; x 10 mol ratio/TPA)?
The value was greater than 80%.

And the “viability percentage of Raji cells” value (Raji cells; x 100 mol ratio/TPA)?
Its value is greater than 80%.

And the “viability percentage of Raji cells” value (Raji cells; x 500 mol ratio/TPA)?
The value was greater than 80%.

And the “viability percentage of Raji cells” value (Raji cells; [3])?
Its value is 60%.

And the “Papilloma Bearer (%)” value ([2]; week 1 of promotion)?
The value was 0.0%.

What about the Papillomas/mouse ([2]; week 1 of promotion) of the same molecule?
Its Papillomas/mouse is 0.0.

And the “Papilloma Bearer (%)” value ([2]; week 2 of promotion)?
The value was 0.0%.

And the Papillomas/mouse ([2]; week 2 of promotion)?
The Papillomas/mouse was 0.0.

And the “Papilloma Bearer (%)” value ([2]; week 3 of promotion)?
Its value is 0.0%.

And the Papillomas/mouse ([2]; week 3 of promotion)?
Its Papillomas/mouse is 0.0.

What about the “Papilloma Bearer (%)” value ([2]; week 4 of promotion) of the same molecule?
The value was 0.0%.

What about the Papillomas/mouse ([2]; week 4 of promotion) of the same molecule?
Its Papillomas/mouse is 0.0.

And the “Papilloma Bearer (%)” value ([2]; week 5 of promotion)?
Its value is 0.0%.

What about the Papillomas/mouse ([2]; week 5 of promotion) of the same molecule?
The Papillomas/mouse was 0.0.

And the “Papilloma Bearer (%)” value ([2]; week 6 of promotion)?
The value was 0.0%.

And the Papillomas/mouse ([2]; week 6 of promotion)?
Its Papillomas/mouse is 0.0.

And the “Papilloma Bearer (%)” value ([2]; week 7 of promotion)?
Its value is 0.0%.

And the Papillomas/mouse ([2]; week 7 of promotion)?
The Papillomas/mouse was 0.0.

And the “Papilloma Bearer (%)” value ([2]; week 8 of promotion)?
Its value is 13.3%.

And the Papillomas/mouse ([2]; week 8 of promotion)?
Its Papillomas/mouse is 0.2.

What about the “Papilloma Bearer (%)” value ([2]; week 9 of promotion) of the same molecule?
Its value is 20.0%.

And the Papillomas/mouse ([2]; week 9 of promotion)?
Its Papillomas/mouse is 0.5.

What about the “Papilloma Bearer (%)” value ([2]; week 10 of promotion) of the same molecule?
Its value is 26.6%.

What about the Papillomas/mouse ([2]; week 10 of promotion) of the same molecule?
Its Papillomas/mouse is 1.1.

And the “Papilloma Bearer (%)” value ([2]; week 11 of promotion)?
Its value is 33.3%.

And the Papillomas/mouse ([2]; week 11 of promotion)?
Its Papillomas/mouse is 1.5.

And the “Papilloma Bearer (%)” value ([2]; week 12 of promotion)?
Its value is 33.3%.

And the Papillomas/mouse ([2]; week 12 of promotion)?
Its Papillomas/mouse is 2.0.

What about the “Papilloma Bearer (%)” value ([2]; week 13 of promotion) of the same molecule?
The value was 40.0%.

What about the Papillomas/mouse ([2]; week 13 of promotion) of the same molecule?
Its Papillomas/mouse is 2.2.

And the “Papilloma Bearer (%)” value ([2]; week 14 of promotion)?
Its value is 46.6%.

And the Papillomas/mouse ([2]; week 14 of promotion)?
The Papillomas/mouse was 2.7.

What about the “Papilloma Bearer (%)” value ([2]; week 15 of promotion) of the same molecule?
The value was 53.3%.

And the Papillomas/mouse ([2]; week 15 of promotion)?
Its Papillomas/mouse is 3.1.

And the “Papilloma Bearer (%)” value ([2]; week 16 of promotion)?
The value was 60.0%.

What about the Papillomas/mouse ([2]; week 16 of promotion) of the same molecule?
The Papillomas/mouse was 3.7.

What about the “Papilloma Bearer (%)” value ([2]; week 17 of promotion) of the same molecule?
Its value is 66.6%.

And the Papillomas/mouse ([2]; week 17 of promotion)?
The Papillomas/mouse was 4.0.

What about the “Papilloma Bearer (%)” value ([2]; week 18 of promotion) of the same molecule?
The value was 73.3%.

What about the Papillomas/mouse ([2]; week 18 of promotion) of the same molecule?
The Papillomas/mouse was 4.1.

What about the “Papilloma Bearer (%)” value ([2]; week 19 of promotion) of the same molecule?
The value was 73.3%.

And the Papillomas/mouse ([2]; week 19 of promotion)?
Its Papillomas/mouse is 4.4.

What about the “Papilloma Bearer (%)” value ([2]; week 20 of promotion) of the same molecule?
The value was 80.0%.

What about the Papillomas/mouse ([2]; week 20 of promotion) of the same molecule?
Its Papillomas/mouse is 4.6.
